# Test results from patent US20030044797A1, “Detection of CYP2D6 polymorphisms” (priority 2000, published 2003).
# Tested on: CYP2D6 enzyme
# Assay: debrisoquine metabolic ratio (MR) phenotyping of study participants, correlated with CYP2D6 5′ flanking region haplotypes
# Type: in vivo, human
# Experimental: The study was performed in accordance with the principles stated in the Declaration of Helsinki as reviewed in Tokyo 1975 and Venice 1983, Hong Kong 1989 and Somerset West 1996. Subjects were preferably not related to each other. Based on questioning, individuals having one of the following were excluded: a medical condition judged to influence liver function or requiring pharmacological treatment; any on-going disease; intake of any drug, except oral contraceptives, during one week prior to the study; breast-feeding or pregnancy. No physical examination was performed. For these experiments, a single oral dose of 10 mg debrisoquine (Declinax, Hoffman-LaRoche) was taken in the evening before bed-time. The bladder was emptied before drug intake. All urine was then collected overnight (about 8 hours) A single blood sample was collected 3 hours after drug intake.
# White blood cells isolated from a blood sample drawn from the brachial vein serve as the source of the genomic DNA for the analyses. The DNA was extracted by guanidine thiocyanate method or QlAamp Blood Kit (QIAGEN, Venlo, The Netherlands). The genes included in the study were amplified by PCR and the DNA sequences were determined by the technology most suitable for the specific fragment. […] Case Report Forms were designed and used for clinical and genetic data collection. Data was entered and stored in a relational database at Gemini Genomics AB, Uppsala. To secure consistency between the Case Report Forms and the database, data was checked either by double data entry or proofreading. After a Clean File was declared the database was protected against changes. By using the program Stat/Transfer™ the database was transferred to SAS data sets. The SAS™ system was used for tabulations and statistical evaluations. Genotypes and haplotypes were correlated against the metabolic ratio.
# This analysis was performed using software based on maximum likelihood methodology and using the EM algorithm of Excoffier et al. (1995), Mol Biol Evol. 12:921-927. […] From the haplotype information two different kinds of variables were created: one variable was formed as a haplotype combination variable (HTYPE). This variable has the value H1/H2 when the subject has haplotypes 1 and 2, etc. Variables H1, H2, H3 and H4 are haplotype annotations that denote the number of copies of that particular haplotype for the subject, e.g., for a subject with haplotype H1/H2 the variables H1, H2, H3 and H4 will be 1, 1, 0 and 0, respectively. Each of these variables can thus take on the values 0, 1 or 2. Only the four most frequent haplotypes were considered when those variables were formed.
compound,measurement,setting,value
N=C(N)N1CCc2ccccc2C1 [debrisoquine],MR-range (min-max),HTYPE H1/H1,0.03-110
same,"MR (Debr), predicted metabolic ratio","HTYPE H1/H1, 89% (49/55) in MR-range",<0.8
same,MR-range (min-max),HTYPE H1/H2,0.06-1.04
same,"MR (Debr), predicted metabolic ratio","HTYPE H1/H2, 81% (52/64) in MR-range",<0.4
same,MR-range (min-max),HTYPE H1/H3,0.08-2.40
same,"MR (Debr), predicted metabolic ratio","HTYPE H1/H3, 74% (14/19) in MR-range",0.4-2.0
same,MR-range (min-max),HTYPE H1/H4,0.18-143
same,"MR (Debr), predicted metabolic ratio","HTYPE H1/H4, 74% (20/27) in MR-range",0.4-7.0
same,MR-range (min-max),HTYPE H2/H2,0.13-1.44
same,"MR (Debr), predicted metabolic ratio","HTYPE H2/H2, 89% (17/19) in MR-range",<0.8
same,MR-range (min-max),HTYPE H2/H3,0.13-2.29
same,"MR (Debr), predicted metabolic ratio","HTYPE H2/H3, 86% (6/7) in MR-range",0.2-7.0
same,MR-range (min-max),HTYPE H2/H4,0.33-3.70
same,"MR (Debr), predicted metabolic ratio","HTYPE H2/H4, 82% (14/17) in MR-range",0.4-2.0
same,MR-range (min-max),HTYPE H3/H3,0.85-5.17
same,"MR (Debr), predicted metabolic ratio","HTYPE H3/H3, 100% (3/3) in MR-range",0.8-7.0
same,MR-range (min-max),HTYPE H3/H4,1.46-6.54
same,"MR (Debr), predicted metabolic ratio","HTYPE H3/H4, 100% (5/5) in MR-range",0.8-7.0
same,MR-range (min-max),HTYPE H4/H4,26.3-236
same,"MR (Debr), predicted metabolic ratio","HTYPE H4/H4, 100% (16/16) in MR-range",>12.6
same,mr50 (metabolic ratio of the 50th percentile),"haplotype H1/H1, n = 53, single oral dose 10 mg debrisoquine",mr50 = 0.22
same,mr50 (metabolic ratio of the 50th percentile),"haplotype H1/—, n = 108",mr50 = 0.375
same,mr50 (metabolic ratio of the 50th percentile),"haplotype H2/H2, n = 19",mr50 = 0.3
same,mr50 (metabolic ratio of the 50th percentile),"haplotype H2/—, n = 88",mr50 = 0.335
same,mr50 (metabolic ratio of the 50th percentile),"haplotype H3/H3, n = 3",mr50 = 2.08
same,mr50 (metabolic ratio of the 50th percentile),"haplotype H3/—, n = 31",mr50 = 0.64
same,mr50 (metabolic ratio of the 50th percentile),"haplotype H4/H4, n = 16",mr50 = 88
same,mr50 (metabolic ratio of the 50th percentile),"haplotype H4/—, n = 49",mr50 = 0.86
same,mr50 (metabolic ratio of the 50th percentile),"no H1 copy (—/—), n = 71",mr50 = 0.87
same,mr50 (metabolic ratio of the 50th percentile),"no H2 copy (—/—), n = 125",mr50 = 0.56
same,mr50 (metabolic ratio of the 50th percentile),"no H3 copy (—/—), n = 198",mr50 = 0.34
same,mr50 (metabolic ratio of the 50th percentile),"no H4 copy (—/—), n = 167",mr50 = 0.27
